Measurements from patent publication US8222218B2, “Cyclopropanated carbohydrates” (Seton Hall University, priority 2008, dated 2012).
Where two headings read alike, the source gives them in different places.

Assays:
MES-induced seizures = assay: Maximal Electroshock Seizure (MES) test, mice; format: in vivo; details: mice, i.p.; for responders at 30 mg/kg / responders at 100 mg/kg / responders at 300 mg/kg: Mus musculus, ip
Description: (§1) The MES test is a model for generalized tonic-clonic seizures. The seizures are highly reproducible and electrophysiologically consistent with human seizures. The test provides information about a compound's ability to prevent the spread of seizure when all neuronal circuits of the brain are maximally active. 60 Hz of alternating current (50 mA in mice, 150 mA in rats) is applied for 2 seconds via corneal electrodes that have been treated with an electrolyte solution containing an anesthetic (0.5% tetracaine HCl). Mice are tested at a variety of intervals after an i.p. injection of […] solution of the test compound (commonly in a 0.5% solution of methylcellulose) at 30, 100, and 300 mg/kg doses. Rats are examined after a 30 mg/kg (per os, p.o.) dose that is applied in a volume of 0.04 mL/g. An animal is considered “protected” from MES-induced seizures upon removal of the hind limb extensor component of the seizure.
(§2) Male and female albino CF1 mice (18-25 g, Charles River, Portage, Mich.) and male albino Sprague-Dawley rats (275-300 g, kindling test; 100-150 g all other tests; Charles River, Raleigh, N.C.) were used as experimental animals.

[1] = test system: metrazole-induced clonic seizures; assay: Subcutaneous Metrazole Seizure Threshold Test (scMET), mice; format: in vivo; details: mice; for responders at 30 mg/kg / responders at 100 mg/kg / responders at 300 mg/kg: Mus musculus, sc
Description: (§3) The subcutaneous injection of metrazole, which is a convulsant, produces clonic seizures in laboratory animals. The scMET test is designed to identify compounds that raise the seizure threshold of an animal. Mice are pretreated with test compound at 30, 100, and 300 mg/kg doses in a similar manner to the MES test. Rats are treated with a 50 mg/kg dose (p.o.). At the previously determined TPE of the test compound, the dose of metrazole that will induce convulsions in 97% of animals (CD97: 85 mg/kg mice) is injected into the loose fold of the skin in the midline of the neck. The animals are placed in isolation cages to minimize stress and observed for the next 30 minutes for the presence or absence of seizures. An episode of clonic spasms (approximately 3-5 seconds) of the fore and/or hindlimbs, jaws or vibrissae is taken as the endpoint.
as §2

[2] = Acute toxicity, minimal motor impairment (rotorod), mice; format: in vivo; details: for TOX 30 0.5 h (animals toxic/tested) / TOX 30 4 h (animals toxic/tested) / TOX 100 0.5 h (animals toxic/tested) / TOX 100 4 h (animals toxic/tested) / TOX 300 0.5 h (animals toxic/tested) / TOX 300 4 h (animals toxic/tested): mice, rotorod; for TOX 30 0.5 h (animals toxic/tested) / TOX 30 4 h (animals toxic/tested): 30 mg/kg; for TOX 100 0.5 h (animals toxic/tested) / TOX 100 4 h (animals toxic/tested): 100 mg/kg; for TOX 300 0.5 h (animals toxic/tested) / TOX 300 4 h (animals toxic/tested): 300 mg/kg; for minimal motor impairment: at same time point / dose as observed activity
Description: (§4) Toxicity was measured using the minimal motor impairment test described below.
Animals are monitored for overt signs of impaired neurological or muscular function to assess a compound's toxicity. In mice, the rotorod procedure is used to disclose minimal muscular or neurological impairment. When a mouse is placed on a rotating rod (6 rpm), the animal can maintain its equilibrium for long periods of time. The animal is considered toxic if it falls off the rotating rod three times during a 1 minute period. In rats, minimal motor deficit is indicated by ataxia, which is manifested by an abnormal, uncoordinated gait.

[3] = test system: electrically-induced psychomotor seizure (6 Hz); assay: Minimal Clonic Seizure (6 Hz) test, mice; format: in vivo; details: i.p., 100 mg/kg
Description: as §4
(§5) The minimal clonic seizure (6 Hz) test, like the MES test, is used to assess a compound's ability to protect against electrically-induced seizures. The minimal clonic (6 Hz) seizure test uses a lower frequency (6 Hz) and a longer duration of stimulation (3 seconds) than the MES test. Test compounds are pre-administered to mice via i.p. injection. At varying times, individual mice (four per time point) are challenged with sufficient current via corneal electrodes to elicit a psychomotor seizure in 97% of animals (32 mA for 3 second). Untreated mice will display seizure characterized by a minimal clonic phase followed by stereotyped, automatistic behaviors described originally as being similar to the aura of human patients with partial seizures. Animals not displaying this behavior are considered to be protected.
as §2

seizures = assay: In vivo anticonvulsant screening (MES, scMET, minimal clonic seizure), summary in words; parameters: species or system rat, mouse; details: summary of Table 2
Description: as §4, §1, §3, §5

[4] = 30 mg/kg, 0.5 h, read-out: MES 30 0.5 h (animals protected/tested)
[5] = 30 mg/kg, 4 h, read-out: MES 30 4 h (animals protected/tested)
[6] = 100 mg/kg, 0.5 h, read-out: MES 100 0.5 h (animals protected/tested)
[7] = 100 mg/kg, 4 h, read-out: MES 100 4 h (animals protected/tested)
[8] = 300 mg/kg, 0.5 h, read-out: MES 300 0.5 h (animals protected/tested)
[9] = 300 mg/kg, 4 h, read-out: MES 300 4 h (animals protected/tested)
[10] = 30 mg/kg, 0.4 h, read-out: scMET 30 0.4 h (animals protected/tested)
[11] = 30 mg/kg, 0.5 h, read-out: scMET 30 0.5 h (animals protected/tested)
[12] = 100 mg/kg, 0.4 h, read-out: scMET 100 0.4 h (animals protected/tested)
[13] = 100 mg/kg, 0.5 h, read-out: scMET 100 0.5 h (animals protected/tested)
[14] = 300 mg/kg, 0.4 h, read-out: scMET 300 0.4 h (animals protected/tested)
[15] = 300 mg/kg, 0.5 h, read-out: scMET 300 0.5 h (animals protected/tested)

Row | Structure (SMILES) | responders at 30 mg/kg (MES-induced seizures; [4]) | responders at 30 mg/kg (MES-induced seizures; [5]) | responders at 100 mg/kg (MES-induced seizures; [6]) | responders at 100 mg/kg (MES-induced seizures; [7]) | responders at 300 mg/kg (MES-induced seizures; [8]) | responders at 300 mg/kg (MES-induced seizures; [9]) | responders at 30 mg/kg [1, 10] | responders at 30 mg/kg [1, 11] | responders at 100 mg/kg [1, 12] | responders at 100 mg/kg [1, 13] | responders at 300 mg/kg [1, 14] | responders at 300 mg/kg [1, 15] | TOX 30 0.5 h (animals toxic/tested) [2] | TOX 30 4 h (animals toxic/tested) [2] | TOX 100 0.5 h (animals toxic/tested) [2] | TOX 100 4 h (animals toxic/tested) [2] | TOX 300 0.5 h (animals toxic/tested) [2] | TOX 300 4 h (animals toxic/tested) [2] | 6 Hz 100 0.25 h (animals protected/tested) [3] | anticonvulsant activity (seizures) | other results
1 | CCOC(=O)C1[C@@H]2[C@@H](OS(N)(=O)=O)[C@@H]3O[C@H](c4ccc(OC)cc4)OC[C@H]3O[C@H]12 (stereo partly drawn) [Compound 17b, ethyl (2R,4aR,5aS,6aS,7R,7aR)-2-(4-methoxyphenyl)-7(sulfamoyloxy)hexahydro-4H-cyclopropa[5,6]pyrano[3,2-d][1,3]dioxine-6-carboxylate] | 0% | 0% | 0% | 0% | 0% | 0% | 0% | 0% | 0% | 0% | 0% | 0% | 0/4 | 0/2 | 0/8 | 0/4 | 2/4 | 0/2 | 0/4 | anticonvulsant activity | 6 Hz 100 0.5 h (animals protected/tested) [3]: 1/4; 6 Hz 100 2 h (animals protected/tested) [3]: 1/4
2 | CCOC(=O)C1[C@@H]2[C@@H](O)[C@@H]3O[C@H](c4ccc(F)cc4F)OC[C@H]3O[C@H]12 (stereo partly drawn) [Compound 20d, Ethyl (2R,4aR,5aS,6aR,7R,7aS)-2-(2,4-difluorophenyl)-7-hydroxyhexahydro-4H-cyclopropa[5,6]pyrano[3,2-d][1,3]dioxine-6-carboxylate] | 0% | 0% | 0% | 0% | 0% | 0% | 0% | 0% | 0% | 0% | 0% | 0% | 1/4 | 0/2 | 1/8 | 0/4 | 2/4 | 1/2 | 1/4 | exhibited activity | minimal motor impairment [2]: minimal motor impairment at the same dose; 6 Hz 100 0.5 h (animals protected/tested) [3]: 0/4; 6 Hz 100 2 h (animals protected/tested) [3]: 0/4
3 | CCOC(=O)C1[C@@H]2[C@@H](O)[C@@H]3O[C@H](c4ccc(C(C)C)cc4)OC[C@H]3O[C@H]12 (stereo partly drawn) [Compound 20b, Ethyl (2R,4aR,5aS,6aR,7R,7aS)-7-hydroxy-2-[4-(propan-2-yl)phenyl]hexahydro-4H-cyclopropa[5.6]pyrano[3,2-d][1,3]dioxine-6-carboxylate] | – | – | – | – | – | – | – | – | – | – | – | – | 1/4 | 0/2 | 0/8 | 0/4 | 0/4 | 0/2 | – | showed activity | MES 30 0.5 h (animals protected/tested) (MES-induced seizures; 30 mg/kg, 0.5 h): 1/5; MES 30 4 h (animals protected/tested) (MES-induced seizures; 30 mg/kg, 4 h): 0/1; MES 100 0.5 h (animals protected/tested) (MES-induced seizures; 100 mg/kg, 0.5 h): 0/7; MES 100 4 h (animals protected/tested) (MES-induced seizures; 100 mg/kg, 4 h): 0/3; MES 300 0.5 h (animals protected/tested) (MES-induced seizures; 300 mg/kg, 0.5 h): 0/1; MES 300 4 h (animals protected/tested) (MES-induced seizures; 300 mg/kg, 4 h): 0/1; scMET 30 0.4 h (animals protected/tested) ([1]; 30 mg/kg, 0.4 h): 0/1; scMET 30 0.5 h (animals protected/tested) ([1]; 30 mg/kg, 0.5 h): 0/1; scMET 100 0.4 h (animals protected/tested) ([1]; 100 mg/kg, 0.4 h): 0/1; scMET 100 0.5 h (animals protected/tested) ([1]; 100 mg/kg, 0.5 h): 0/1; scMET 300 0.4 h (animals protected/tested) ([1]; 300 mg/kg, 0.4 h): 0/1; scMET 300 0.5 h (animals protected/tested) ([1]; 300 mg/kg, 0.5 h): 0/1; minimal motor impairment [2]: minimal motor impairment at the same time point
4 | CCOC(=O)C1[C@@H]2[C@@H](O)[C@@H]3O[C@H](c4cccc(OC)c4)OC[C@H]3O[C@H]12 (stereo partly drawn) [Compound 20e, Ethyl (2R,4aR,5aS,6aR,7R,7aS)-7-hydroxy-2-(3-methoxyphenyl)hexahydro-4H-cyclopropa[5,6]pyrano[3,2-d][1,3]dioxine-6-carboxylate] | 0% | 0% | 0% | 0% | 0% | 0% | 0% | 0% | 0% | 0% | 0% | 0% | 0/4 | 0/2 | 0/8 | 0/4 | 0/4 | 0/2 | – | – | –
